Laboratory results reported in PubChem BioAssay AID2060352 (Molecular Pharmacology Branch, DTP, NCI, 2025).
“And” between values parts separate entries of the source, which are not always exact repeats. Equal entries are not always repeated.

Tested on: 616215-338-R-J1-PDC spheroid with HUVEC/MSC, viability
Experiment: Anticancer human tumor 616215-338-R-J1-PDC patient-derived colon adenocarcinoma cell line growth inhibition [TAK]
Conditions: for viability, T/C: stronger effect = lower value
Text: Combinatorial screen of targeted agents with TAK-243 and ipatasertib in multi-cell type tumor spheroids
A high-throughput screen of multi-cell type tumor spheroids was designed to identify active combinations of targeted small molecules and TAK-243 or ipatasertib. Complex spheroids include a stromal component modeled by human endothelial cells (HUVEC) and fibroblasts modeled by human mesenchymal stem cells (MSCs). The concentration ranges selected for each drug and investigational agent were based upon clinically achievable concentrations if the clinical Cmax of the agent was known.
Compounds. The drugs and investigational agents: TAK-243 (785004), ipatasertib (767898), everolimus (733504), selumetinib (741078), bortezomib (756655), trametinib (758246), ixazomib (758254), vemurafenib (761431), dabrafenib (764134), sapanisertib (764658), alpelisib (765974), and copanlisib (816437), were obtained from the National Cancer Institute (NCI) Developmental Therapeutics Program Chemical Repository. The FDA-approved anticancer drug set is available from the NCI Developmental Therapeutics Program. […] The stock solutions were prepared in dimethyl sulfoxide (DMSO, Sigma-Aldrich, St. Louis, MO, cat. D2650) at 800-fold the tested concentration and stored at -70 degrees C prior to their use. All drugs and investigational agents were tested over a range starting from a high concentration at or near the clinical Cmax and decreasing in half-log increments. If the clinical Cmax for an agent had not been determined, the highest concentration tested was 10 microM.
NCI60 Cell Culture. NCI60 cell lines were obtained from the NCI Developmental Therapeutics Program Tumor Repository. For each lot of cells, the Repository performed Applied Biosystems AmpFLSTR Identifiler testing with PCR amplification to confirm consistency with the published Identifier STR profile for each cell line. Cells were kept in continuous culture for no more than 20 passages. The optimal seeding densities for each of the cell lines at each time point assessed were determined prior to performing the concentration response studies. Briefly, the NCI60 human tumor lines were grown as monolayers in RPMI 1640 medium supplemented with 10% FBS and 2 mmol/L L-glutamine.
An additional 2 lines were from the NCI60 cell line panel including melanomas, MALME-3M and SK-MEL-2. Pooled donor human umbilical vein endothelial cells (HUVEC, Lonza, cat. CC-2519) and human mesenchymal stem cells (hMSC, Lonza, cat. PT-2501) were purchased from Lonza (Walkersville, MD).
PDMR cell lines were grown in complete medium (DC medium): Dulbecco's modified Eagle's medium (DMEM)/F12 supplemented with 5% fetal bovine serum (FBS), 2 mM L-glutamine, 100 U/mL penicillin and 100 µg/ml streptomycin, 0.4 µg/ml hydrocortisone, 10 ng/ml epidermal growth factor (EGF) recombinant human protein, 24 µg/mL adenine, and 0.1 mg/mL primocin. During culture from frozen stock vials, PDMR cells were cultured in the same medium containing 10 µM Y-27632 (see Table 3). The PDCs were cultured in complete DMEM/F12 media without 10 microM Y-27632 dihydrochloride for at least two passages prior to the screen. The pooled donor HUVEC and hMSC were cultured in endothelial cell growth medium 2 (PromoCell, Heidelberg, Germany, cat. C-22011) and mesenchymal stem cell growth medium 2 (PromoCell, cat. C-28009), respectively. For all experiments, HUVEC and hMSC were used at passages </=5.
For the pre-screen, cell seeding densities were determined from a titration spanning the range from 5,000 to 313 cells per well. The mct-spheroids including 60% malignant cells, 25% HUVEC and 15% MSC dispensed as a mixture into U-bottom Ultra-Low Attachment 384-well plates (Corning, NY)
High-throughput Drug Combination Screening.
Prior to their inoculation into 384-well plates, malignant cells, HUVEC, and hMSC were removed from T flasks using TrypLE express (Thermo Fisher Scientific, cat. 12605036) and harvested by centrifugation for 5 min at 233 x g. […]

[1] = curve of first compound, second compound 0.3 µM
[2] = curve of first compound, second compound 0.949 µM
[3] = curve of first compound, second compound 3 µM
[4] = curve of first compound, second compound 9.49 µM
[5] = curve of first compound, second compound 30 µM
[6] = second compound 0.3 µM, first compound 0.0316 µM
[7] = second compound 0.3 µM, first compound 0.1 µM
[8] = second compound 0.3 µM, first compound 0.316 µM
[9] = second compound 0.3 µM, first compound 1 µM
[10] = second compound 0.3 µM, first compound 3.16 µM
[11] = second compound 0.3 µM, first compound 10 µM
[12] = second compound 0.949 µM, first compound 0.0316 µM
[13] = second compound 0.949 µM, first compound 0.1 µM
[14] = second compound 0.949 µM, first compound 0.316 µM
[15] = second compound 0.949 µM, first compound 1 µM
[16] = second compound 0.949 µM, first compound 3.16 µM
[17] = second compound 0.949 µM, first compound 10 µM
[18] = second compound 3 µM, first compound 0.0316 µM
[19] = second compound 3 µM, first compound 0.1 µM
[20] = second compound 3 µM, first compound 0.316 µM
[21] = second compound 3 µM, first compound 1 µM
[22] = second compound 3 µM, first compound 3.16 µM
[23] = second compound 3 µM, first compound 10 µM
[24] = second compound 9.49 µM, first compound 0.0316 µM
[25] = second compound 9.49 µM, first compound 0.1 µM
[26] = second compound 9.49 µM, first compound 0.316 µM
[27] = second compound 9.49 µM, first compound 1 µM
[28] = second compound 9.49 µM, first compound 3.16 µM
[29] = second compound 9.49 µM, first compound 10 µM
[30] = second compound 30 µM, first compound 0.0316 µM
[31] = second compound 30 µM, first compound 0.1 µM
[32] = second compound 30 µM, first compound 0.316 µM
[33] = second compound 30 µM, first compound 1 µM
[34] = second compound 30 µM, first compound 3.16 µM
[35] = second compound 30 µM, first compound 10 µM
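Also: spheroids exposed to drugs for 7 days before readout.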

`CCCS(=O)(=O)Nc1ccc(F)c(C(=O)c2c[nH]c3ncc(-c4ccc(Cl)cc4)cc23)c1F` was tested, and the viability, T/C (compound 0.316 µM) was 110% and 87.2%, the viability, T/C (compound 1 µM) was 99.9% and 99.5% and the viability, T/C (compound 3.16 µM) was 90.2% and 81%. For the same compound, the viability, T/C (compound 10 µM) was 16.4% and 24.1%, the viability, T/C (compound 31.6 µM) was 106% and 4.96% and the viability, T/C (compound 100 µM) was 64.9% and 98.7%.
For `CC(=O)Nc1cccc(-n2c(=O)n(C3CC3)c(=O)c3c(Nc4ccc(I)cc4F)n(C)c(=O)c(C)c32)c1`, the viability, T/C (compound 94.9 pM) was 97% and 104%, the viability, T/C (compound 0.0003 µM) was 110% and 106% and the viability, T/C (compound 0.000949 µM) was 134% and 90.8%. For the same compound, the viability, T/C (compound 0.003 µM) was 90.5% and 64%, the viability, T/C (compound 0.00949 µM) was 33.2% and 29.1% and the viability, T/C (compound 0.03 µM) was 5.55% and 17.7%. The IC50 (curve of compound) was 6.78 nM and 4.71 nM.
For `CC(C)n1nc(-c2ccc3oc(N)nc3c2)c2c(N)ncnc21`, the viability, T/C (compound 0.000316 µM) was 95.9% and 105%, the viability, T/C (compound 0.001 µM) was 115% and 107% and the viability, T/C (compound 0.00316 µM) was 99.9% and 114%. The viability, T/C (compound 0.01 µM) was 112% and 130%, the viability, T/C (compound 0.0316 µM) was 127% and 146% and the viability, T/C (compound 0.1 µM) was 94% and 38%. The IC50 (curve of compound) was > 100 nM and 84.7 nM.
`CC(C)CC(NC(=O)CNC(=O)c1cc(Cl)ccc1Cl)B1OC(=O)CC(CC(=O)O)(C(=O)O)O1` (stereo unspecified) was tested, and the viability, T/C (compound 0.000316 µM) was 93.3% and 102%, the viability, T/C (compound 0.001 µM) was 97.9% and 110% and the viability, T/C (compound 0.00316 µM) was 104% and 111%. The viability, T/C (compound 0.01 µM) was 95.5% and 107%, the viability, T/C (compound 0.0316 µM) was 7.86% and 10.7% and the viability, T/C (compound 0.1 µM) was 0.16% and 0.17%. The IC50 (curve of compound) was 18.2 nM and 19.7 nM.
`CC(C)CC(NC(=O)C(Cc1ccccc1)NC(=O)c1cnccn1)B(O)O` (stereo unspecified) was tested, and the viability, T/C (compound 31.6 pM) was 98.1% and 102%, the viability, T/C (compound 0.0001 µM) was 115% and 110% and the viability, T/C (compound 0.000316 µM) was 101% and 108%. The viability, T/C (compound 0.001 µM) was 92.3% and 103%, the viability, T/C (compound 0.00316 µM) was 107% and 102% and the IC50 (curve of compound) was > 10 nM and 5.79 nM.
`CC(C)NCC(C(=O)N1CCN(c2ncnc3c2C(C)CC3O)CC1)c1ccc(Cl)cc1` (stereo unspecified) was tested, and the viability, T/C (compound 9.49 µM) was 26.9% [middle of 10 runs], the viability, T/C (compound 30 µM) was 12.7% [middle of 10 runs] and the IC50 (compound alone, run of 02/20/2020) was 6.46 µM [middle of 5 runs]. The IC50 (compound alone, run of 03/19/2020) was 5.01 µM [middle of 5 runs].
In the case of `Cc1nc(NC(=O)N2CCCC2C(N)=O)sc1-c1ccnc(C(C)(C)C(F)(F)F)c1` (stereo unspecified) + CC(C)NCC(C(=O)N1CCN(c2ncnc3c2C(C)CC3O)CC1)c1ccc(Cl)cc1, the IC50 [1] is reported as > 10000 nM, the IC50 [2] is reported as > 10000 nM and the IC50 [3] is reported as 2760 nM. For the same compound, the IC50 [4] was < 31.6 nM, the IC50 [5] was < 31.6 nM and the viability, T/C [6] was 101%. The viability, T/C [7] was 113%, the viability, T/C [8] was 127% and the viability, T/C [9] was 112%. The viability, T/C [10] was 119%, the viability, T/C [11] was 83.3% and the viability, T/C [12] was 120%. For the same compound, the viability, T/C [13] was 119%, the viability, T/C [14] was 128% and the viability, T/C [15] was 119%. For the same compound, the viability, T/C [16] was 110%, the viability, T/C [17] was 51.3% and the viability, T/C [18] was 94.9%. For the same compound, the viability, T/C [19] was 91%, the viability, T/C [20] was 80% and the viability, T/C [21] was 52.2%. For the same compound, the viability, T/C [22] was 59.3%, the viability, T/C [23] was 37.8% and the viability, T/C [24] was 28%. For the same compound, the viability, T/C [25] was 27.4%, the viability, T/C [26] was 25.1% and the viability, T/C [27] was 24.9%. The viability, T/C [28] was 21.5%, the viability, T/C [29] was 16.1% and the viability, T/C [30] was 14.2%. The viability, T/C [31] was 14.4%, the viability, T/C [32] was 11.4% and the viability, T/C [33] was 11.3%. For the same compound, the viability, T/C [34] was 10% and the viability, T/C [35] was 6.48%.
For `Cn1cnc2c(F)c(Nc3ccc(Br)cc3Cl)c(C(=O)NOCCO)cc21`, the viability, T/C (compound 0.00949 µM) was 115% and 123%, the viability, T/C (compound 0.03 µM) was 109% and 107% and the viability, T/C (compound 0.0949 µM) was 98.8% and 134%. The viability, T/C (compound 0.3 µM) was 64.2% and 90.9%, the viability, T/C (compound 0.949 µM) was 43.6% and 36.8% and the viability, T/C (compound 3 µM) was 28.2% and 22.3%. For the same compound, the IC50 (curve of compound) was 632 nM and 695 nM.
For `CC(C)(C)c1nc(-c2cccc(NS(=O)(=O)c3c(F)cccc3F)c2F)c(-c2ccnc(N)n2)s1` + CC(C)NCC(C(=O)N1CCN(c2ncnc3c2C(C)CC3O)CC1)c1ccc(Cl)cc1, the IC50 [1] was 5380 nM, the IC50 [2] was 834 nM and the IC50 [3] was 182 nM. For the same compound, the IC50 [4] was < 31.6 nM, the IC50 [5] was < 31.6 nM and the viability, T/C [6] was 130%. For the same compound, the viability, T/C [7] was 140%, the viability, T/C [8] was 156% and the viability, T/C [9] was 138%. For the same compound, the viability, T/C [10] was 77.8%, the viability, T/C [11] was 17.5% and the viability, T/C [12] was 141%. The viability, T/C [13] was 132%, the viability, T/C [14] was 87% and the viability, T/C [15] was 43.1%. The viability, T/C [16] was 22%, the viability, T/C [17] was 10.1% and the viability, T/C [18] was 63.5%. It also gave a viability, T/C [19] of 69%, a viability, T/C [20] of 35.1% and a viability, T/C [21] of 16.8%. For the same compound, the viability, T/C [22] was 10.3%, the viability, T/C [23] was 7.4% and the viability, T/C [24] was 21.2%. For the same compound, the viability, T/C [25] was 19.9%, the viability, T/C [26] was 15.2% and the viability, T/C [27] was 8.91%. It also gave a viability, T/C [28] of 5.79%, a viability, T/C [29] of 6.27% and a viability, T/C [30] of 8.84%. For the same compound, the viability, T/C [31] was 10.3%, the viability, T/C [32] was 7.86% and the viability, T/C [33] was 6.37%. It also gave a viability, T/C [34] of 3.65% and a viability, T/C [35] of 3.34%.
`CC(C)(C)c1nc(-c2cccc(NS(=O)(=O)c3c(F)cccc3F)c2F)c(-c2ccnc(N)n2)s1` was tested, and the viability, T/C (compound 0.0316 µM) was 104% and 106%, the viability, T/C (compound 0.1 µM) was 123% and 114% and the viability, T/C (compound 0.316 µM) was 132% and 107%. For the same compound, the viability, T/C (compound 1 µM) was 119% and 95.5%, the viability, T/C (compound 3.16 µM) was 73.2% and 54.6% and the viability, T/C (compound 10 µM) was 18.3% and 28.5%. The IC50 (curve of compound) was 5150 nM and 3870 nM.
